Each block holds one compound with its values, some of them ahead of it.
Experiments:
Assay type in all cases: physicochemical
[1] = Solubility in water of sodium salts of Compound I; conditions: read-out: Aqueous Solubility of Sodium Salt Form of Compound I
Procedure: Sodium salts of Compound I described herein above were tested for solubility in water.

[2] = Solid-state stability of crystalline form on storage (form checked by X-ray powder diffraction); conditions: for crystalline form after extended storage: X-ray powder diffraction
Procedure: A sample of Form A crystalline hydrate of Compound I was subjected to stability analysis for 1 week at a temperature of 25° C. at 60% relative humidity.
Stability of Form B crystalline hydrate of compound I to extended storage was evaluated by storing samples of Form B crystalline hydrate of compound I for twelve months at either 5° C. or 25° C., and then subjecting samples of the stored material to X-ray powder diffraction analytical analysis.

[3] = Hygroscopicity by dynamic vapor sorption
Procedure: Form A crystalline hydrate of compound I was analyzed by X-ray powder diffraction, thermogravimetric analysis, dynamic vapor sorption (to analyze hygroscopicity), and Karl Fischer titration.
The title compound was analyzed for hygroscopicity by dynamic vapor sorption.

solubility [1]: 3000 µg/mL
Compound: Nc1nc(Cl)nc2c1ncn2[C@H]1[C@H](O)[C@H](O)[C@]2(COP(=O)(O)O)C[C@H]12 [Compound I, ((1R,2R,3S,4R,5S)-4-(6-amino-2-chloro-9H-purin-9-yl)-2,3-dihydroxybicyclo[3.1.0]hexan-1-yl)methyl dihydrogen phosphate]

Compound: Nc1nc(Cl)nc2c1ncn2[C@H]1[C@H](O)[C@H](O)[C@]2(COP(=O)(O)O)C[C@H]12 [Form B crystalline hydrate of compound I]
relative stability of crystalline forms ([2]; comparison with Form A hydrate and crystalline sodium salt forms): more stable than Form A of crystalline hydrate of compound I and more stable than the crystalline sodium salt forms of compound I
crystalline form after extended storage ([2]; twelve months at 5° C.): remain as Form B crystalline hydrate of compound I
crystalline form after extended storage ([2]; twelve months at 25° C.): remain as Form B crystalline hydrate of compound I

increase in weight during the absorption step ([3]; absorption step, FIG. 3, in %): 5.2100
weight loss during the desorption step ([3]; desorption step, FIG. 3): 5.16%
Compound: Nc1nc(Cl)nc2c1ncn2[C@H]1[C@H](O)[C@H](O)[C@]2(COP(=O)(O)O)C[C@H]12 [Form A crystalline hydrate of Compound I]
crystalline form at the end of the stability study ([2]; 1 week, 25° C., 60% relative humidity): converted to Form B crystalline hydrate of Compound I

From patent US20250368668A1, “CRYSTALLINE FORMS AND SALT FORMS OF A CARDIAC P2X RECEPTOR AGONIST, PHARMACEUTICAL COMPOSITIONS, AND THEIR USE IN TREATING MEDICAL DISORDERS” (Cornovus Pharmaceuticals, Inc., priority 2024, published 2025)
